Data taken from patent US7858635B2 (priority 2005, dated 2010).

Legend:
M4 muscarinic receptor = biological target: T1, M4 muscarinic receptor (Homo sapiens, UniProt P08173); test: Functional mobilization of intracellular calcium (FLIPR, Fluo-3), M4-CHO cells; assay type: cell-based; settings: compound nos. 1-454; for Emax: 100% efficacy is the maximum response obtained with the Carbachol control, read-out: M4 Efficacy; for M4 Activity: M4-CHO cells, calcium mobilization
T1 construct: expressed in transfected cells; host or cells: CHO cells (M4-CHO, under puromycin, zeocin and blasticidin selection)
T1 sequence (P08173 1-479): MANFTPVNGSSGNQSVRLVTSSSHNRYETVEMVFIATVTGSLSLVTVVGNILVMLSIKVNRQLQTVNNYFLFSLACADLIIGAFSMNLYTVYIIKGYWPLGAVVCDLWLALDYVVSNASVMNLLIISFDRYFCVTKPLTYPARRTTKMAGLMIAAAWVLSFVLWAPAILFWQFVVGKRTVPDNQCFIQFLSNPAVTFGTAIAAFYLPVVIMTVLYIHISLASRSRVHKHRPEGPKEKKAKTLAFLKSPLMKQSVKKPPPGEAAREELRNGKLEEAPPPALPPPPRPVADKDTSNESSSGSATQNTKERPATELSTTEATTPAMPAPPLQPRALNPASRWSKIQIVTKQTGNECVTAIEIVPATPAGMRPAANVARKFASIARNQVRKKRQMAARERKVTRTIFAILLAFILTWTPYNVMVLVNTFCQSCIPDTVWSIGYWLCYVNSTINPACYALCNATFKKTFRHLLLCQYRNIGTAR
Protocol: (§1) CHO cells expressing muscarinic receptors (M1 to M5) are grown as monolayers in tissue culture flasks at 37° C. in a humidified atmosphere containing 5% CO2 and passaged every 3-5 days. The growth media is Dulbecco's modified eagles medium (DMEM, Gibco Cat#12430-054), containing 25 mM Hepes and supplemented with Fetal Bovine Serum (Hyclone, cat# SH30071.03), 0.1 mM of MEM non-essential amino acids (GIBCO, Cat# 11140-050), 1 mM MEM Sodium Pyruvate (GIBCO Cat# 11360-070) and 100 units/ml of Penicillin G and 100 μg/ml of Streptomycin (GIBCO Cat# 15140-122). The recombinant muscarinic receptor cell lines are grown under antibiotic pressure with media containing 25 μm/ml zeocin and 500 μg/ml G418 (M1-CHO), 4 μg/ml puromycin, 50 μg/ml zeocin and 2.5 μm/ml blasticidin (M2 and M4-CHO) or 50 μg/ml zeocin and 4 μg/ml puromycin (M3 and M5-CHO).
(§2) Cells are harvested at 80-90% confluence using Versene (GIBCO Cat# 15040-066), collected by centrifugation and seeded 18-24 hrs prior to running the calcium assay at a density of 5,000-10,000 cells/well in […], clear-bottomed 384-well plates (BD Biocoat, poly-D-lysine, Cat#356663). The day of the experiment, the cells are washed with a plate washer (Bioteck Instruments, ELX 405) using bath1 buffer (140-mM NaCl, 4.5-mM KCL, 2-mM CaCl2, 1-mM MgCl2, 10-mM Hepes-Na, 10-mM Glucose, pH 7.4, with NaOH) containing 1 mM Probenecid. Next, the calcium dye Fluo-3 (25 μl/well of Fluo-3 μM at 4 μM, Molecular Probes F-1241, in Bath 1 buffer containing 1 mM Probenecid) is added to the 25 μl of Bath 1 remaining in each well after the plate wash and the dye is loaded at 37° C. in the tissue culture incubator for 60-90 min. The fluorescent dye is removed using the plate washer with Bath 1 containing 1 mM Probenecid, leaving 25 μl/well of this solution after the wash. Alternatively, cells can be loaded with the calcium indicator from Molecular Devices (Calcium 3 Assay Reagents, Cat # R7181) adding 5 μl of a 5× solution dye in Bath 1 containing 1 mM Probenecid (10 ml per dye flask cat# R7182 to generate a solution 20×) to 20 μl of the same buffer. After loading for 60 min, the experiment can be run without having to remove the dye.
(§3) Compounds are prepared at a 2× fold concentration in a 96-well plate (round bottom, Costar Corning cat# 3656), by reconstituting the pre-spotted compounds in bath 1 containing 1 mM probenecid. The final concentration DMSO is 0.5%, and the amount of DMSO is normalized across the assay plate. To determine an agonist action of the compounds on muscarinic receptors, the reconstituted compounds are added (25 μl compound/well) to the cell assay plate (containing 25 μl/well) using the multi-channel robotic system of the FLIPR 3 Instrument (Molecular Devices, Sunnyvale, Calif.). To determine a functional inhibitory action of the compounds on muscarinic receptors, the reconstituted compounds are added (25 μl compound/well) to the assay plate and pre-incubated for 15 min prior to adding 25 μl of Carbachol at 3× the EC80 for each muscarinic subtype. Alternatively, the compounds can be co-applied simultaneously with the agonist. In both assay modes, the fluorescence is recorded for 60 sec (excitation wavelength is […] and emission wavelength 540 nm) using the FLIPR 3 instrument.
(§4) The potency, efficacy and selectivity of the muscarinic compounds were evaluated by screening the compound activity across the whole family (M1 to M5 cells). Compounds were also screened for activity on other proteins such as other GPCRs and ion channels to determine selectivity on M4 receptors.

M1 muscarinic receptor = biological target: T2, M1 muscarinic receptor (Homo sapiens, UniProt P11229); test: Functional mobilization of intracellular calcium (FLIPR, Fluo-3), M1-CHO cells; assay type: cell-based; settings: compound nos. 1-454; for Emax: 100% efficacy is the maximum response obtained with the Carbachol control, read-out: M1 Efficacy; for M1 Activity: M1-CHO cells, calcium mobilization
T2 construct: expressed in transfected cells; host or cells: CHO cells (M1-CHO, under zeocin and G418 selection)
T2 sequence (P11229 1-460): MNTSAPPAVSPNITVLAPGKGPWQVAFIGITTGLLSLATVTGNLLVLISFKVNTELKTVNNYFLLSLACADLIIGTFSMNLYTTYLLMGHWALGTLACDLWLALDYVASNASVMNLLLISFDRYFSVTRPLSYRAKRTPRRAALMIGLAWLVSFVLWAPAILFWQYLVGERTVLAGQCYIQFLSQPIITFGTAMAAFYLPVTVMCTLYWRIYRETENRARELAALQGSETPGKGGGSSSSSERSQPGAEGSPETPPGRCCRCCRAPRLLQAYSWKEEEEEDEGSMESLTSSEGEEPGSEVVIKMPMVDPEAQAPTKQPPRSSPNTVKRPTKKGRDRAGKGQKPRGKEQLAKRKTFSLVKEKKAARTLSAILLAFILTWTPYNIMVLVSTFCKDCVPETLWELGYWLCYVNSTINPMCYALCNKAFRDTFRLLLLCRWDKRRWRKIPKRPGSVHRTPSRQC
Protocol: as §1, §2, §3, §4

Row | Compound | Emax (M4 muscarinic receptor) [%] | M4 Activity (M4 muscarinic receptor) | Emax (M1 muscarinic receptor) [%] | M1 Activity (M1 muscarinic receptor)
1 | Clc1ccc2c(c1)C1(CCN(C3C[C@@H]4CCC3C4)CC1)CO2 (stereo in doubt) [compound 1, 1′-((1S,2R,4R)-bicyclo[2.2.1]heptan-2-yl)-5-chloro-2H-spiro[benzofuran-3,4′-piperidine]] | > 70 | ++ (activity was measured to be between 0.1 μM and 4.0 μM) | 65 to 85 | ++ (activity was measured to be between 0.7 μM and 3.0 μM)
2 | Clc1ccc2c(c1)C1(CCO2)CCN(CC2CC3C=C[C@H]2C3)CC1 (stereo in doubt) [compound 64, 1′-((1R,2R,4R)-bicyclo[2.2.1]hept-5-en-2-ylmethyl)-6-chlorospiro[chroman-4,4′-piperidine]] | < 55 | ++ (activity was measured to be between 0.1 μM and 4.0 μM) | < 65 | +++ (activity was measured to be less than or equal to 0.7 μM)
3 | CC(=O)NC1CC2(CCN(C3CCCCC3)CC2)c2ccccc21 (stereo not drawn) [compound 2] | < 55 | + (activity was measured to be greater than or equal to 4.0 μM) | < 65 | + (activity was measured to be greater than or equal to 3.0 μM)
4 | Cc1ccc2c(c1)C1(CCN(CC3CC4C=CC3C4)CC1)CN2 (stereo not drawn) [compound 3] | 55 to 70 | ++ (activity was measured to be between 0.1 μM and 4.0 μM) | 65 to 85 | +++ (activity was measured to be less than or equal to 0.7 μM)
5 | CC(=O)N[C@H]1CC2(CCN(C3C4CC5CC(C4)CC3C5)CC2)c2ccccc21 (stereo partly drawn) [compound 4] | < 55 | + (activity was measured to be greater than or equal to 4.0 μM) | < 65 | +++ (activity was measured to be less than or equal to 0.7 μM)
6 | Clc1ccc2c(c1)C1(CCN(C3CCCCC3)CC1)CO2 [compound 5] | > 70 | +++ (activity was measured to be less than or equal to 0.1 μM) | 65 to 85 | +++ (activity was measured to be less than or equal to 0.7 μM)
7 | CCOC(=O)N1CCC(N2CCC3(CC2)CN(C(C)=O)c2ccc(-c4cccc(C)c4)cc23)CC1 [compound 6] | 55 to 70 | ++ (activity was measured to be between 0.1 μM and 4.0 μM) | 65 to 85 | +++ (activity was measured to be less than or equal to 0.7 μM)
8 | O=C1Nc2ccccc2C12CCN(CC1CC3C=CC1C3)CC2 (stereo not drawn) [compound 7] | > 70 | ++ (activity was measured to be between 0.1 μM and 4.0 μM) | 65 to 85 | +++ (activity was measured to be less than or equal to 0.7 μM)
9 | CC(=O)NC1CC2(CCN(C3CC4CCC(C4)C3)CC2)c2ccccc21 (stereo not drawn) [compound 8] | 55 to 70 | ++ (activity was measured to be between 0.1 μM and 4.0 μM) | < 65 | ++ (activity was measured to be between 0.7 μM and 3.0 μM)
10 | CCOC(=O)N1C2CCC1CC(N1CCC3(CC1)CN(C(C)=O)c1ccc(C)cc13)C2 (stereo not drawn) [compound 9] | 55 to 70 | + (activity was measured to be greater than or equal to 4.0 μM) | 65 to 85 | +++ (activity was measured to be less than or equal to 0.7 μM)
11 | CCOC(=O)N1CCC(N2CCC3(CC2)CN(C(C)=O)c2ccc(-c4ccc(NC(C)=O)cc4)cc23)CC1 [compound 10] | 55 to 70 | ++ (activity was measured to be between 0.1 μM and 4.0 μM) | 65 to 85 | ++ (activity was measured to be between 0.7 μM and 3.0 μM)
12 | C=Cc1ccc2c(c1)C1(CCN(C3CCN(C(=O)OCC)CC3)CC1)CN2C(C)=O [compound 11] | < 55 | + (activity was measured to be greater than or equal to 4.0 μM) | < 65 | + (activity was measured to be greater than or equal to 3.0 μM)
